Drawing on PubChem BioAssay (NCI), this text covers TGI and GI50 for 20 molecules.

Common to all, as to test: growth of human tumour cells (NCI), 48 h
Assay [1] has as its system SW-620 colon.
For assay [2], the system named is PC-3 prostate.
Assay [3] deals with HCT-15 colon.
The test system of assay [4] is SF-268 CNS.
Assay [5] concerns TK-10 renal.
Assay [6] has as its system LOX IMVI melanoma.
Assay [7] deals with K-562 leukemia.
The test system of assay [8] is OVCAR-5 ovarian.
Assay [9] has as its system A549 NSCLC.
Assay [10] relates to MDA-MB-435.
In assay [11] the test system is HT29 colon.
The subject of assay [12] is SK-MEL-5 melanoma.
In assay [13] the test system is NCI-H226 lung.
For assay [14], the system named is OVCAR-3 ovarian.
Assay [15] deals with SF-539 CNS.

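Test compounds were applied to cells in 96-well plates for 48 hours at 5 doses. GI50 is the concentration that inhibits growth by half. TGI marks complete inhibition of growth.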 *1 amine or outer side, *2 acyl side, *3 side chain or, on linkers, in order; H or OH if unused. Where a SMILES comes first, the peptide text is derived from it. Bridges are numbered along the chain shown (N, C = ends). Roman numbers before positions name the chains, in order. [ ]: non-standard residue; d: D form. Actinocin(9to1) = Cc1c2oc3c(C)ccc(C(=O)[*:1])c3nc-2c(C(=O)[*:2])c(N)c1=O; NMeV = CN[CH](C(=O)O)C(C)C; Sar = CNCC(=O)O

Regarding `C[C@]12[C@@H]3CC[C@H]1[C@@H](O)C(=O)N2CC3`, the TGI in [1], in [2], in assay [3], in assay [4], in [5] and in assay [6] was over 100 µM each time. Moreover, the TGI in [7], in assay [8], in assay [9], in assay [10], in [11] and in [12] was over 100 µM in each case.
As to `Cc1ccc(-[n+]2cc([O-])on2)cc1`, the TGI in assay [1], in [2], in assay [3], in [4], in [5] and in assay [6] was over 100 µM in each case. Besides, the TGI in [7], in assay [13], in assay [8], in [9], in [10] and in assay [14] was over 100 µM each time. For the same molecule, the TGI in [11] and in assay [12] was over 100 µM each time.
For the molecule `CCOC(=O)CCCSCCCC(=O)CCCSCCCC(=O)OCC`, the TGI in [1], in [2], in assay [3], in assay [4], in assay [5] and in assay [6] was over 100 µM throughout. Besides, the TGI in assay [7], in assay [8], in [15], in [9], in assay [10] and in [14] was over 100 µM throughout. The TGI in [11] and in [12] was over 100 µM each time.
Consider `O=C1c2ccccc2-n2nnnc2C2CSCN12` (centres undefined), for which the TGI in assay [1], in assay [2], in assay [3], in assay [4], in assay [5] and in assay [6] was over 100 µM each time. The TGI in [7], in assay [13], in assay [8], in assay [9], in assay [10] and in [14] was over 100 µM throughout. The TGI in assay [11] and in [12] was over 100 µM in each case.
Turning to `COc1ccc(C2=CC(C(C)=C(C(N)=O)C(N)=O)C=C(c3ccc(Br)cc3)C2)c(OC)c1` (centres undefined), the TGI in assay [1], in assay [2], in assay [3], in assay [4], in assay [5] and in assay [6] was over 100 µM throughout. Further, the TGI in assay [7], in assay [13], in assay [8], in assay [9], in assay [10] and in [14] was over 100 µM each time. In addition, the TGI in [11] and in assay [12] was over 100 µM each time.
On to `O=S(=O)(O)c1cc(N=Nc2c(O)ccc3ccccc23)cc2c(S(=O)(=O)O)cccc12`, for which the TGI in assay [1], in [2], in assay [3], in assay [4], in assay [5] and in assay [7] was over 100 µM each time. The TGI in assay [13], in assay [8], in [15], in assay [9], in assay [10] and in assay [14] was over 100 µM throughout. The TGI in assay [11] and in assay [12] was over 100 µM each time.
Regarding `O=C1c2sc(-c3ccc(Cl)cc3)cc2-n2cccc21`, the TGI in assay [1], in [2], in assay [3], in assay [4], in assay [5] and in assay [6] was over 100 µM throughout. Also, the TGI in assay [7], in assay [13], in assay [8], in [9], in [10] and in assay [14] was over 100 µM in each case. Moreover, the TGI in assay [11] and in [12] was over 100 µM throughout.
For the molecule `CON(C)C(=O)C(C)N(Cc1ccccc1)Cc1ccccc1` (centres undefined), the TGI in assay [1], in assay [2], in assay [3], in assay [4], in assay [5] and in [7] was over 100 µM throughout. For the same molecule, the TGI in assay [13], in [8], in assay [15], in assay [9], in assay [10] and in [14] was over 100 µM throughout. In addition, the TGI in assay [11] and in [12] was over 100 µM in each case.
Take `Cc1cn(C2OC(CO[Si](C)(C)C(C)(C)C)C(N(C)O[Si](C)(C)C(C)(C)C)C2[Se]c2ccccc2)c(=O)[nH]c1=O` (centres undefined): the TGI in assay [1] is over 100 µM; in assay [2], 34 µM; in assay [3], 30.1 µM; in assay [4] it was 10.2 µM; in assay [5], 27.1 µM; in [6], 10.2 µM. The TGI in [7] is over 100 µM; in [13], 21.7 µM; in assay [8], 11.7 µM; in [9] it was 49.5 µM; in assay [10] it was 21 µM; in assay [14], 19.9 µM. Further, the TGI in [11] is 16.8 µM; in [12] it was 53.7 µM.
In the case of `O=c1[nH]c(=O)c2c3n(cc2[nH]1)CCCCC3`, the TGI in assay [2], in [3], in assay [4], in assay [5], in assay [6] and in assay [7] was over 100 µM in each case. Further, the TGI in assay [13], in [8], in assay [9], in assay [10], in assay [11] and in assay [12] was over 100 µM each time.
Take `N#Cc1nc(-c2cnccn2)oc1N`: the TGI in assay [1], in [2], in assay [3], in assay [4], in assay [5] and in assay [6] was over 100 µM throughout. The TGI in assay [7], in [8], in [9], in assay [10], in assay [11] and in [12] was over 100 µM each time.
Regarding `COC(=O)c1cccc(C)c1C1CN=NC12Cc1cc(C)cc(C)c1C2=O` (centres undefined), the TGI in assay [1], in assay [3], in assay [4], in [5], in assay [6] and in [7] was over 100 µM each time. Besides, the TGI was over 100 µM in assay [13]; over 100 µM in [8]; over 100 µM in [15]; over 100 µM in [9]; 66.1 µM in assay [10]; over 100 µM in assay [14]. In addition, the figures for the TGI in assay [11] and in assay [12] were 86.7 µM and 77 µM, respectively.
In the case of `CC1(C)[C@@H](Cn2cc(I)c(=O)[nH]c2=O)CC[C@@]1(C)CO`, the TGI in assay [1], in assay [2], in assay [3], in [4], in assay [5] and in [6] was over 100 µM each time. Further, the TGI in assay [7], in [13], in [8], in assay [9], in assay [10] and in assay [14] was over 100 µM each time. In [12], this molecule gave a TGI of over 100 µM.
Consider `Cc1ccc2nc(-c3ccccc3)cc(=O)n2c1`, for which the TGI in [1], in [2], in assay [3], in [4], in [5] and in [7] was over 100 µM throughout. Also, the TGI in [13], in [8], in assay [15], in assay [9], in assay [10] and in [14] was over 100 µM in each case. Also, the TGI in assay [11] and in [12] was over 100 µM throughout.
On to `COc1ccc(NC(=S)c2ccc(CN3CCCCC3)s2)cc1`, for which the TGI in [1] was 42.4 µM; in assay [2], 62.2 µM; in assay [3], 26.9 µM; in assay [4] it was over 100 µM; in assay [6] it was 33.3 µM; in assay [7], 42.1 µM. For the same molecule, the TGI is 34.1 µM in assay [8]; over 100 µM in [15]; 47.4 µM in [9]; 34.7 µM in assay [10]; over 100 µM in assay [14]; 18.3 µM in assay [11]. This molecule registered a TGI in [12] of 28 µM.
As to `Cc1ccc(S[C@@H](C)[C@@](O)(CF)CN(Cc2ccccc2)C(=O)C(F)(F)F)cc1`, the TGI was 75.2 µM in assay [1]; 94.3 µM in [2]; 55.5 µM in assay [3]; over 100 µM in assay [4]; over 100 µM in assay [5]; over 100 µM in assay [6]. The TGI in [8] is 34.8 µM; in assay [9], 32.1 µM; in assay [10] it was 40.4 µM; in assay [14], 27 µM; in assay [11] it was 27.6 µM.
Take `CCOC(=O)C(=[N+]=[N-])C(=O)CN1C(=O)c2ccccc2C1=O`: the TGI in assay [1], in [2], in [3], in assay [4], in [5] and in assay [7] was over 100 µM in each case. Besides, the TGI in [8], in assay [15], in assay [9], in assay [10], in assay [14] and in [11] was over 100 µM in each case. Also, the TGI in [12] is over 100 µM.
For `COc1cc(OCCN(C)C)c2[nH]c(C(=O)N3CC(CCl)c4ccc(N)cc43)cc2c1` (centres undefined), the TGI was 1.34 µM in assay [2]; 1.58 µM in assay [3]; 0.908 µM in assay [4]; 1.09 µM in [5]; over 100 µM in [7]; 2.58 µM in assay [13]. Further, the TGI in assay [8] was 5.63 µM; in assay [9], over 34.3 µM; in assay [10] it was 0.281 µM; in [14] it was 0.607 µM; in [11], 0.262 µM; in assay [12] it was 0.197 µM.
For the molecule `Cc1c2oc3c(C)ccc(C(=O)NC4C(=O)NC(C(C)C)C(=O)N5CCCC5C(=O)N(C)CC(=O)N(C)C(C(C)C)C(=O)OC4C)c3nc-2c(C(=O)NC2C(=O)NC(C(C)C)C(=O)N3CCCC3C(=O)N(C)CC(=O)N(C)C(C(C)C)C(=O)OC2C)c(N)c1=O` (centres undefined) (I: TVP[Sar][NMeV] / II: TVP[Sar][NMeV]; ester I:1-I:C, II:1-II:C; linker I:N-II:N via Actinocin(9to1); configuration not given here), the TGI in assay [1] is 0.105 µM; in assay [2] it was 0.0317 µM; in assay [3], over 1 µM; in [4], 0.0269 µM; in [5] it was over 0.246 µM; in [8], 0.00663 µM. The TGI in assay [15] was 0.00299 µM; in assay [9], over 0.867 µM; in assay [10], 0.0125 µM; in assay [14], 0.00907 µM; in assay [11], 0.00207 µM; in [12], 0.0153 µM. Besides, the GI50 in [8] was 0.00145 µM.
Turning to `Cc1cc(OC(=O)Nc2cccc3ccccc23)c(C(C)C)cc1C(=S)Nc1ccccc1`, the TGI was 43.3 µM in [1]; 42.2 µM in assay [2]; 29.2 µM in assay [3]; 77.6 µM in [4]; 28.7 µM in assay [6]; 43.2 µM in [7]. The TGI was 46 µM in [8]; 36.9 µM in assay [15]; over 100 µM in [9]; 33.5 µM in assay [10]; 33.5 µM in [14]; 35.8 µM in assay [11]. This molecule returned a TGI in assay [12] of 27.9 µM.
